Data set [1] in a line: Solubility in organic solvents. The class given is physicochemical. Conditions: 25° C., amount of solute (g) based on 100 ml of solvent. How it is done: The solubility of Synthesis Examples 1 to 3 and Synthesis Comparative Example 1 in organic solvents (1,2-dichloroethane, toluene and tetrahydrofuran) at 25° C. was measured. The solubility was indicated by the amount of solute (g) based on 100 ml of solvent.

Data set [2] can be described thus: Dissolving the charge transporting agent in dichloroethane solution of polycarbonate resin for the charge transporting layer. The class given is physicochemical. Conditions: 8.0% dichloroethane solution of polycarbonate resin (Iupilon Z). As for the experimental part:
On the other hand, 1.5 parts of the p-terphenyl compound (compound No. 1) synthesized in Synthesis Example 1 was added as a charge transporting agent to 18.75 parts of a 8.0% dichloroethane solution of a polycarbonate resin (Iupilon Z, manufactured by Mitsubishi Engineering-Plastics Corporation), followed by application of an ultrasonic wave to completely dissolve the p-terphenyl compound. This solution was applied onto the above-mentioned charge generating layer with a wire bar, and dried at 110° C. under normal pressure for 30 minutes to form a charge transporting layer having a film thickness of 20 μm, thus preparing photoconductor No. 1.
Photoconductor No. 7 was prepared in the same manner as in Photoconductor Example 1 with the exception that the charge transporting agent used in Photoconductor Example 1 was changed to the same amount of the p-terphenyl compound (comparative compound No. 1) synthesized in Synthesis Comparative Example 1.
On the other hand, 0.9 part of the p-terphenyl compound (compound No. 1) synthesized in Synthesis Example 1 was added as a charge transporting agent to 11.25 parts of a 8.0% dichloroethane solution of a polycarbonate resin (Iupilon Z, manufactured by Mitsubishi Engineering-Plastics Corporation), followed by application of an ultrasonic wave to completely dissolve the p-terphenyl compound. […]

The results in this text go back to US20080076050A1, “P-Terphenyl Compound And Photosensitve Body For Electrophotography Using Such Compound” (Hodogaya Chemical Co., Ltd., priority 2004, published 2008).

A word on the melting point: it is the temperature, or range, at which the solid turns liquid.

For `Cc1ccc(N(c2ccc(C)cc2)c2ccc(-c3ccc(-c4ccc(N(c5ccc(C)cc5)c5ccc(C)cc5)cc4)cc3)cc2)cc1` [Comparative Compound 1, N,N,N′,N′-tetra-p-tolyl-4,4″-diamino-p-terphenyl], the melting point lay within 232.5 to 233.5 °C. Moreover, in data set [1], the “Solubility in 1,2-Dichloroethane” value stood at 2.3 g/100 ml, the “Solubility in Tetrahydrofuran” value stood at 12.4 g/100 ml and the “Solubility in Toluene” value was determined as 2.2 g/100 ml. Besides, in data set [2], the “Solubility of charge transporting agent when preparing the photoconductor” value is listed as “insoluble”.

For `Cc1ccc(N(c2ccc(-c3ccc(-c4ccc(N(c5ccc(C)cc5)c5ccc6c(c5)CCC6)cc4)cc3)cc2)c2ccc3c(c2)CCC3)cc1` [Compound No. 1, N,N′-bisindane-5-yl-N,N′-di-p-tolyl-4,4″-diamino-p-terphenyl], the melting point was in the range of 207.4 to 208.1 °C. Moreover, in data set [1], the “Solubility in 1,2-Dichloroethane” value came to 4.2 g/100 ml, the “Solubility in Tetrahydrofuran” value is listed as 20.8 g/100 ml and the “Solubility in Toluene” value was found to be 11.0 g/100 ml.

`COc1ccc(N(c2ccccc2)c2ccc(-c3ccc(-c4ccc(N(c5ccccc5)c5ccc(OC)cc5C)cc4)cc3)cc2)c(C)c1` [Compound No. 2, N,N′-di(4-methoxy-2-methylphenyl)-N,N′-diphenyl-4,4″-diamino-p-terphenyl] displayed a melting point of 180.8 to 183.4 °C. Further, in data set [1], the “Solubility in 1,2-Dichloroethane” value stood at 3.5 g/100 ml, the “Solubility in Tetrahydrofuran” value came out at 18.1 g/100 ml and the “Solubility in Toluene” value is reported as 9.3 g/100 ml.

With `COc1ccc(N(c2ccc(-c3ccccc3)cc2)c2ccc(-c3ccc(-c4ccc(N(c5ccc(-c6ccccc6)cc5)c5ccc(OC)cc5C)cc4)cc3)cc2)c(C)c1` [Compound No. 3, N,N′-bis-biphenyl-4-yl-N,N′-di-4-methoxy-2-methylphenyl-4,4″-diamino-p-terphenyl], the melting point was in the range of 232.6 to 233.2 °C. Moreover, in data set [1], the “Solubility in 1,2-Dichloroethane” value is 30.0 or more g/100 ml, the “Solubility in Tetrahydrofuran” value is given as 30.0 or more g/100 ml and the “Solubility in Toluene” value is on record as 30.0 or more g/100 ml.

`Cc1ccc(N(c2ccccc2)c2ccc(-c3ccc(-c4ccc(N(c5ccccc5)c5ccc(C)cc5)cc4)cc3)cc2)cc1` [Compound No. 17, N,N′-diphenyl-N,N′-di-p-tolyl-4,4″-diamino-p-terphenyl]: the melting point was in the range of 167.2 to 168.2 °C.
